Measured values as given in ChEMBL document CHEMBL1201862, “PubChem BioAssay data set” (2004).
Active and inactive are the calls of the source. Non-standard residues stand in square brackets, D forms with d. Residues, ends and D or L forms follow the SMILES beside them. ξ: configuration not given here. *: point of attachment. ξF = NC(Cc1ccccc1)C(=O)O; Cbz = O=C(OCc1ccccc1)*

Columns and labels:
[1] = molecular target: Luciferin 4-monooxygenase (Photinus pyralis, UniProt P08659); test: inhibition of purified Photinus pyralis luciferase – biochemical, luminescence, dose response (AID 1891)
Sequence of Luciferin 4-monooxygenase (P08659 whole entry): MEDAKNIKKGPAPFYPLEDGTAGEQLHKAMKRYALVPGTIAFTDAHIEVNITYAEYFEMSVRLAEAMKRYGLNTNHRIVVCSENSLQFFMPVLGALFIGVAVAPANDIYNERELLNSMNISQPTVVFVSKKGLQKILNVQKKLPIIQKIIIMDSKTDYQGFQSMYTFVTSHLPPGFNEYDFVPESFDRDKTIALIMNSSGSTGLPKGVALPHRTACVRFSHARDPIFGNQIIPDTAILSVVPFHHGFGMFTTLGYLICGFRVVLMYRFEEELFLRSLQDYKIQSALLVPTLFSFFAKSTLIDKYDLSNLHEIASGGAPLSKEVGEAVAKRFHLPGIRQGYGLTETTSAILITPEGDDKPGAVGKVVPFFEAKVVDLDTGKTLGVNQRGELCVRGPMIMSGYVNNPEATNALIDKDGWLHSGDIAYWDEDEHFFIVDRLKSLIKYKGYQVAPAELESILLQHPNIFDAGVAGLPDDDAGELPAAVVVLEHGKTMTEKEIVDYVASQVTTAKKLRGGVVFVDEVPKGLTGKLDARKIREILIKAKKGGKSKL

[2] = Luminescence Cell-Based Dose Confirmation HTS to Identify Inhibitors of Platelet Dense Granule Release. [Related pubchem assays: 1663 (Primary HTS), 1678 (Summary of Project)]; format: functional
[3] = molecular target: FAD-linked sulfhydryl oxidase ALR (Homo sapiens, UniProt P55789); test: ALR-catalysed DTT oxidation blockers – biochemical, H2O2 detection, luminescence, cherry-pick, dose response (AID 493248)
Sequence of FAD-linked sulfhydryl oxidase ALR (P55789 whole entry): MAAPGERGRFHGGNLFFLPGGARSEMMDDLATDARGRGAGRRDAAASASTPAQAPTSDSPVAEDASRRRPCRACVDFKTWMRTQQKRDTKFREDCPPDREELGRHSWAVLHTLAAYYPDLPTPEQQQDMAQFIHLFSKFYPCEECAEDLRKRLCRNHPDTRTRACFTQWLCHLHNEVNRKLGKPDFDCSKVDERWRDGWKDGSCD

cells [4] = format: functional, cell-based
cells [5] = format: functional, cell-based; remark: listed apart in the source
[6] = molecular target: T1, Heat shock factor protein 1 (Mus musculus, UniProt P38532); test: decrease of HSF1-responsive luciferase luminescence – cell-based, NIH3T3, dose retest, confirmation (AID 2382); format: functional;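 also: NIH3T3 fibroblasts with HSF1-driven luciferase reporter stressed by proteasome inhibitor MG132; luminescence from HSF1-driven luciferase expression after 8 hours of MG132 stress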
T1 sequence (P38532 whole entry): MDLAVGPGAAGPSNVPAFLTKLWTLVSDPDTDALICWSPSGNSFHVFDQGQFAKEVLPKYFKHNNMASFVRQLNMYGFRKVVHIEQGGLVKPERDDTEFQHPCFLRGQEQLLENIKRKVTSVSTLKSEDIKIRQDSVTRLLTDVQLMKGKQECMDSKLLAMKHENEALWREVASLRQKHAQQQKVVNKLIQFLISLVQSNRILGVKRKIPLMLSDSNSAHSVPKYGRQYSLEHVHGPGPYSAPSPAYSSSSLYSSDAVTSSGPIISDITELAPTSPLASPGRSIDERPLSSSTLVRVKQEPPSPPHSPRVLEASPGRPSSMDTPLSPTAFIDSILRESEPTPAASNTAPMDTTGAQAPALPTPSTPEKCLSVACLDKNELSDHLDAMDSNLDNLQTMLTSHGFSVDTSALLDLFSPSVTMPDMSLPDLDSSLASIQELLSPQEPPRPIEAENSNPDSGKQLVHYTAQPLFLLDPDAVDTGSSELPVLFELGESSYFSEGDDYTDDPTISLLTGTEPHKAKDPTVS

[7] = molecular target: T2, Ubiquitin-conjugating enzyme E2 N (Homo sapiens, UniProt P61088); format: functional;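 also: Dose-response confirmation in a TR-FRET assay detecting UBC13-driven polyubiquitin chain formation, inhibition measured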
T2 sequence (P61088 whole entry): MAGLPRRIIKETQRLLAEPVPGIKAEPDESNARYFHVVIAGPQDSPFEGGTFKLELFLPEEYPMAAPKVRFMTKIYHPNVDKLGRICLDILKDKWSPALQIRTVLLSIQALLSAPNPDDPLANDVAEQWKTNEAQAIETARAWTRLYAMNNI

[8] = molecular target: T3, Replicative DNA helicase DnaB (Mycobacterium tuberculosis, UniProt P9WMR3); test: DnaB intein splicing inhibitors, dose response, biochemical, cell-free fluorescence (AID 449749); format: functional
T3 sequence (P9WMR3 whole entry): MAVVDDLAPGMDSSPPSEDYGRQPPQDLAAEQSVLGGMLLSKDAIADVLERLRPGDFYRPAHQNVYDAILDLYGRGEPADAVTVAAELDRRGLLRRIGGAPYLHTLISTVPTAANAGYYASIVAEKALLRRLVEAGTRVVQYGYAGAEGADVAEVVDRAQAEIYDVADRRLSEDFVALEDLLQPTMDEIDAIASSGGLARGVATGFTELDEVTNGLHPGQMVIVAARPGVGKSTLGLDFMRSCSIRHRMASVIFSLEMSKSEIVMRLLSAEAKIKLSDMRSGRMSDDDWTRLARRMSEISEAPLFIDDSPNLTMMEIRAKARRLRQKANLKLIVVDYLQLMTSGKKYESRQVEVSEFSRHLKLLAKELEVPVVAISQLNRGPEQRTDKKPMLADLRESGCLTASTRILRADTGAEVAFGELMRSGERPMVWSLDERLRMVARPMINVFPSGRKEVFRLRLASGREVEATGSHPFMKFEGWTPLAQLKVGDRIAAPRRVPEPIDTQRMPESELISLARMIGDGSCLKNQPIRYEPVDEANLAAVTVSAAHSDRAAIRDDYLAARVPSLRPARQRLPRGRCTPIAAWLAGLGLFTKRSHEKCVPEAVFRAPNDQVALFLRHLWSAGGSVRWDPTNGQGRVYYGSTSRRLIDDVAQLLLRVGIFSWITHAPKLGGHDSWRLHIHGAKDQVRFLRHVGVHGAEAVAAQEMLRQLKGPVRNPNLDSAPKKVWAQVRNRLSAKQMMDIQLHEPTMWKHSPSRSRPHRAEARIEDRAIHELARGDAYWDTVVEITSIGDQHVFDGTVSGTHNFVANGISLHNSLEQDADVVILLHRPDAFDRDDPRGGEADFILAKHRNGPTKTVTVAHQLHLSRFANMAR

Protein RecA = molecular target: T4, Protein RecA (Mycobacterium tuberculosis, UniProt P9WHJ3); test: Fluorescence Cell-Free Homogeneous Dose Retest to Identify Inhibitors of RecA-Intein Splicing Activity. [Related pubchem assays (depositor defined):AID2097, AID2223, AID489010, AID492950]; format: functional
T4 sequence (P9WHJ3 whole entry): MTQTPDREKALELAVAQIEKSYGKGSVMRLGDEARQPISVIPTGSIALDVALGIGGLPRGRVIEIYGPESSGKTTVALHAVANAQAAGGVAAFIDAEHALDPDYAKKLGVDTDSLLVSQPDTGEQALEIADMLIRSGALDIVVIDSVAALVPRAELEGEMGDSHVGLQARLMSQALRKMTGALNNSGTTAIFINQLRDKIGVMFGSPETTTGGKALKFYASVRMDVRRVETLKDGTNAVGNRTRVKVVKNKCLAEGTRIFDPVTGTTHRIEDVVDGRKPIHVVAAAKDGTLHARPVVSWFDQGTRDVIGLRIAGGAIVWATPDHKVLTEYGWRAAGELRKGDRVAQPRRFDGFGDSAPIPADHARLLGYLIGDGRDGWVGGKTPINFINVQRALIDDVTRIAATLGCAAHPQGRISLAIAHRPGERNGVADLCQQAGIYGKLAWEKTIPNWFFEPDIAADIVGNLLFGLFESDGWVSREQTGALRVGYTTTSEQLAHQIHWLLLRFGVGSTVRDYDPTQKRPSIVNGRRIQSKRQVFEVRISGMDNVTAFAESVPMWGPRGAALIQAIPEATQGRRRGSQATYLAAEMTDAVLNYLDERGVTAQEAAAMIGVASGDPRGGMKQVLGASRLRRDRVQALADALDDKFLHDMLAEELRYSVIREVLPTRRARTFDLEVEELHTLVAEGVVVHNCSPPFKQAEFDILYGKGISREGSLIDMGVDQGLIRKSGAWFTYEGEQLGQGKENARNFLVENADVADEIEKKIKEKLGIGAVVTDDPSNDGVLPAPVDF

Nonstructural protein 1 = Nonstructural protein 1 (Influenza A virus, UniProt Q194T2); format: functional, Influenza A virus (A/California/07/2009(H1N1))
Sequence of Nonstructural protein 1 (Q194T2 whole entry): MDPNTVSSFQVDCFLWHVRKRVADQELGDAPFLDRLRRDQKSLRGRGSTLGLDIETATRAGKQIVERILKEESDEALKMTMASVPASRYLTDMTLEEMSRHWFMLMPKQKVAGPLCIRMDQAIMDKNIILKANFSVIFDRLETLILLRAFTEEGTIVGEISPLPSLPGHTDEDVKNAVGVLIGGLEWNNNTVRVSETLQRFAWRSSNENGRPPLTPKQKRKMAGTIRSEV

Cytochrome P450 3A4 = Cytochrome P450 3A4 (Homo sapiens, UniProt P08684);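 also: CYP3A4 tested as one member of a cytochrome P450 panel screen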
Sequence of Cytochrome P450 3A4 (P08684 whole entry): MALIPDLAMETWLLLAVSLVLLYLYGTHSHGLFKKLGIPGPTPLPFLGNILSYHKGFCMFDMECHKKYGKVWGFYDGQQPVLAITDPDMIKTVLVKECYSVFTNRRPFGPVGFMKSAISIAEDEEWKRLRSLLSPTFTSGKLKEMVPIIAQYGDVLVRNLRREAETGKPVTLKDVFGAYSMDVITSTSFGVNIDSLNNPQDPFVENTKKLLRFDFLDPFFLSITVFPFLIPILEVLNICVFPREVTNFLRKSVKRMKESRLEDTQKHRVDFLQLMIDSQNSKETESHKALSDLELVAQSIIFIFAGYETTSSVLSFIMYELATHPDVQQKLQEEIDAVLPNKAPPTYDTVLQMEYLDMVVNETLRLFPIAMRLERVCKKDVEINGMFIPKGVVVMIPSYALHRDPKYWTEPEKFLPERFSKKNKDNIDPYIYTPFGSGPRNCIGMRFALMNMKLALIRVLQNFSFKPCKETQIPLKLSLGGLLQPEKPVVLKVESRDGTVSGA

[9] = viability of uninfected HEp-2 cells – cell-based, HTS, cytotoxicity control for RSV inhibitor project, dose response (AID 2410); format: functional; details: human respiratory syncytial virus
[10] = P. falciparum Dd2 growth inhibitors, dose response, SYBR Green, cherry-picked samples (AID 1159567); format: functional, cell-based

## COc1cccc(CNC(=O)c2cc(S(=O)(=O)N3CCOCC3)cn2C)c1
[1]
  EC50: > 112 µM (not active)
[2]
  EC50: > 112 µM (not active)

## CN(C)c1cccc(C(=O)NCc2ccccc2)c1
[3]
  AC50: 5.25 µM (active)

## Cc1cccc(NC(=O)c2ccc(NCCO)c([N+](=O)[O-])c2)n1
[1]
  EC50: > 112 µM (not active)
[2]
  EC50: 25.5 µM (active)

## COc1cccc(-n2c(S)nnc2CCn2nc(C)c([N+](=O)[O-])c2C)c1
[3]
  AC50: 10.6 µM (active)

## CCOC(=O)C1CCN(c2ncnc3cc(OC)c(OC)cc23)CC1
[1]
  EC50: > 112 µM (not active)
[2]
  EC50: 9.14 µM (active)

## CN(CC(=O)Nc1ccccc1Oc1ccccc1)Cc1ccccc1F
Cells [4]
  EC50: > 350 µM (not active)
Cells [5]
  EC50: > 350 µM (not active)

## CCOC(=O)C1(Cc2cccc(OC)c2)CCN(CC=C(C)C)CC1
[1]
  EC50: > 112 µM (not active)
[2]
  EC50: 21.4 µM (active)

## NC(=O)c1nsc(C(=O)N(c2cccc(F)c2)C(C(=O)NC2CCCC2)c2ccco2)c1N (stereo not given)
[6]
  EC50: > 195 µM (not active)
[7]
  IC50: > 20 µM (inactive)

## N#CC1=C(N)Oc2[nH]nc(-c3cccs3)c2C1c1ccncc1 (stereo not given)
[8]
  AC50: 31 µM (active)
Protein RecA
  EC50: 5.36 µM (active)

## Cc1ccc(N2C(=O)CSC2c2cccnc2)cc1F (stereo not given)
[3]
  AC50: 0.193 µM (active)

## COc1ccc(C2C(C#N)=C(N)Nc3onc(C(C)(C)C)c32)c(OC)c1 (stereo not given)
Nonstructural protein 1
  IC50: > 100 µM (active)

## COc1ccc(CN2CCNC(=O)C2CC(=O)NC2CCCC2)c(OC)c1 (stereo not given)
Cells [4]
  EC50: > 350 µM (not active)
Cells [5]
  EC50: > 350 µM (not active)

## Cc1ccc2cc(CN(Cc3ccco3)C(=O)C3CCCCC3)c(O)nc2c1C
[1]
  EC50: > 112 µM (not active)
[2]
  EC50: > 112 µM (not active)

## Sc1nnc(-c2cccc3ccccc23)n1-c1cccnc1
[3]
  AC50: 8.24 µM (active)

## Cc1cccc(Sc2c([N+](=O)[O-])ncn2C)c1
[3]
  AC50: 0.265 µM (active)

## Cc1ccc(-c2csc(NC(=O)C[n+]3cc(-c4ccc(C)cc4)n4c3CCC4)n2)cc1
[7]
  IC50: > 20 µM (inactive)

## COC(=O)Cc1cc(O)nc(Nc2nc3ccccc3o2)n1
[7]
  IC50: > 20 µM (inactive)

## CCc1nnc(NC(=O)[C@@H](NC(=O)c2ccc(OC)cc2)C(C)C)s1
[1]
  EC50: > 112 µM (not active)
[2]
  EC50: > 112 µM (not active)

## CCCOC(=O)c1ccc(OC(=O)c2ccco2)cc1
[8]
  AC50: 13 µM (active)
Protein RecA
  EC50: 11.8 µM (active)

## O=C1NC(=O)/C(=C/c2ccc(OS(=O)(=O)c3ccc(F)cc3F)cc2)N1
Cells [4]
  EC50: > 350 µM (not active)
Cells [5]
  EC50: > 350 µM (not active)

## COc1cccc(NC(=O)N2CCN(c3cccc(C)c3)C(C)C2)c1 (stereo not given)
[3]
  AC50: 6.28 µM (active)

## CCN(c1ccc(NC(=O)COC(=O)c2ccc3ccccc3n2)cc1)C(C)C
Nonstructural protein 1
  IC50: 93.5 µM (active)
Cytochrome P450 3A4
  AC50: 39.8 µM (inconclusive)

## CC(C)N(c1ccccc1)c1ncnc(NCCC(=O)O)c1[N+](=O)[O-]
Cells [4]
  EC50: > 350 µM (not active)
Cells [5]
  EC50: > 350 µM (not active)

## CCOc1ccc(-c2nc(CCl)cs2)cc1
[1]
  EC50: 40.7 µM (active)
[2]
  EC50: > 112 µM (not active)

## Cc1cccc(C)c1NC(=O)C1CCCN1S(=O)(=O)c1ccc(-c2ccc(O)nn2)s1 (stereo not given)
[1]
  EC50: > 112 µM (not active)
[2]
  EC50: 47.1 µM (active)

## Cc1n[nH]c(O)c1C(c1ccc(O)c(Br)c1)c1c(C)n[nH]c1O
[8]
  AC50: 0.326 µM (active)
Protein RecA
  EC50: 0.232 µM (active)

## COc1cc2c(cc1OC)C(c1ccccc1)N(S(C)(=O)=O)CC2 (stereo not given)
Cells [4]
  EC50: > 350 µM (not active)
Cells [5]
  EC50: > 350 µM (not active)

## Cc1cccc(-c2noc(CN(C)S(=O)(=O)c3cc(Cl)ccc3Cl)n2)c1
Cells [4]
  EC50: > 350 µM (not active)
Cells [5]
  EC50: > 350 µM (not active)

## N#CC(c1ccccc1)c1cnccn1 (stereo not given)
[8]
  AC50: > 380 µM (inactive)
Protein RecA
  EC50: > 380 µM (inactive)

## CCCc1cc(C(=O)N2CCCC(N3CCN(c4ccc(F)cc4)CC3)C2)no1 (stereo not given)
[3]
  AC50: > 100 µM (inactive)

## OCCN(Cc1cccnc1)Cc1ccccn1
Nonstructural protein 1
  IC50: 4.64 µM (active)

## Cc1cccc(N2CCN(C(=O)c3ccncc3)CC2C)c1 (stereo not given)
[3]
  AC50: 9.32 µM (active)

## O=C(N/N=C/c1ccc(-c2ccccc2[N+](=O)[O-])o1)[C@H]1C[C@@H]1c1ccccc1
[9]
  CC50: 18.3 µM (active)
[8]
  AC50: 8.14 µM (active)
Protein RecA
  EC50: 18.9 µM (active)

## N#Cc1ccc(-c2ccc([C@@H]3[C@@H]4CN(S(=O)(=O)Cc5ccccc5)C[C@H]3N4)cc2)cc1
[10]
  AC50: 6.48 µM (active)

## CN1CCCCN2[C@@H](CO)[C@@H](c3ccc(-c4cccnc4)cc3)[C@@H]2C1
[10]
  AC50: 6.76 µM (active)

## COc1ccc(NC(=O)Nc2ccc3c(c2)CC(=O)N([C@@H](C)CO)C[C@@H](C)[C@H](CN(C)CC2CCCCC2)O3)cc1
[10]
  AC50: 4.85 µM (active)

## CO[C@@H]1CN(C)C(=O)c2ccc(NC(=O)C3CCC3)cc2OC[C@@H](C)N(CC2CCCCC2)C[C@H]1C
[10]
  AC50: 4.4 µM (active)

## COc1ccc2c3c([nH]c2c1)[C@H](CO)N(Cc1ccccc1F)CC31CN(C(=O)C2CCCC2)C1
[10]
  AC50: 9.56 µM (active)

## CCOC(=O)C(Cc1ccccc1)NC(=O)CNC(=O)CNC(=O)OCc1ccccc1 (stereo not drawn) (Cbz-Gly-Gly-[ξF]-OEt)
[1]
  EC50: > 112 µM (not active)
[2]
  EC50: 25 µM (active)

## CC1=NN(c2ccccc2)C(=O)C1 [EDARAVONE]
[8]
  AC50: 2.75 µM (active)
Protein RecA
  EC50: 2.95 µM (active)

## CCOC(=O)c1cc(-c2ccccc2)nc2ccc(C)cc12 [NEOCINCHOPHEN]
[7]
  IC50: > 20 µM (inactive)
